Experiments:
Assay type in all cases: in vivo
[1] = tested on: Rumex obtusifolius (broad-leaf dock); assay: Greenhouse postemergence herbicidal effect on RUMOB
Source text: (§1) Greenhouse Trial Methodology—Evaluation of Postemergence Herbicidal Effect
(§2) Seeds of the desired test plant species were planted in a 90:10% v/v (volume/volume) mixture of PRO-MIX® BX (Premier Tech Horticulture, Quakertown, Pa., USA) and PROFILE® GREENS GRADE™ (Profile Products LLC, Buffalo Grove, Ill., USA) planting mixture, which typically has a pH of 5.2 to 6.2 and an organic matter content of at least 50 percent, in plastic pots with a surface area of 103.2 square centimeters (cm^2). In some aspects or embodiments, to help ensure good germination and healthy plants, a fungicide treatment and/or other chemical or physical treatment was applied. The plants were grown for 7-36 days (d) in a greenhouse with an approximate 14-hour (h) photoperiod which was maintained at about 23° C. during the day and 22° C. during the night. Nutrients and water were added on a regular basis and supplemental lighting was provided with overhead metal halide 1000-Watt lamps as necessary. The plants were employed for testing when they reached the second or third true leaf stage.
(§3) Emulsifiable concentrates of each of each pyridine carboxylate herbicide (Compound A or Compound B) were prepared at 100 grams acid equivalent per liter (g ae/L). The emulsifiable concentrates also included a safener, cloquintocet mexyl, at 120 grams active ingredient per liter (g ai/L). An aliquot of each emulsifiable concentrate was placed in a 25 mL glass vial and diluted with an aqueous mixture of 1.25% (v/v) ACTIROB® B esterified rapeseed oil (Bayer Crop Science, Research Triangle Park, N.C., USA) or MSO® Concentrate with LECI-TECH® methylated soybean oil (Loveland Products, Loveland, Colo., USA) to obtain concentrated stock solutions at the highest application rate for each herbicide, based upon a 12 milliliter (mL) application volume at a rate of 187 liters per hectare (L/ha). The concentrated stock solutions were further diluted with an aqueous mixture of 1.25% v/v ACTIROB® B or MSO® Concentrate with LECI-TECH® to obtain stock solutions at reduced application rates for each herbicide. Spray solutions of the herbicide combinations (Compound A or Compound B plus PROTOX inhibitor herbicide) were prepared by adding weighed amounts or aliquots of the PROTOX inhibitor herbicides to the stock solutions of Compound A or Compound B to form 12-mL spray solutions in two-way combinations.
(§4) The spray solutions were applied to the plant material with an overhead Mandel track sprayer equipped with 8002E nozzles calibrated to deliver 187 L/ha over an application area of 0.503 square meters (m^2) at a spray height of 18 inches (43 centimeters (cm)) above the average plant canopy. Control plants were sprayed in the same manner with the solvent blank. All pyridine carboxylate herbicide (component a) application rates are given as “g ae/ha” and all PROTOX inhibitor herbicide (component b) application rates are given as “g ai/ha.”
(§5) The treated plants and control plants were placed in a greenhouse as described above and watered by sub-irrigation to prevent wash-off of the test compounds. After 20-22 d, the condition of the test plants as compared with that of the control plants was determined visually and scored on a scale of 0 to 100 percent where 0 corresponds to no injury and 100 corresponds to complete kill.

[2] = tested on: Matricaria discoidea (pineapple weed); assay: Greenhouse postemergence herbicidal effect on MATMT
Source text: as §1, §2
as §3, with “combinations. […]” for “combinations.”
as §5

Zea mays (maize) = assay: Greenhouse postemergence phytotoxicity on crop ZEAMX
Source text: as §1, §2
(§6) Emulsifiable concentrates of each of each pyridine carboxylate herbicide (Compound A or Compound B) were prepared at 100 grams acid equivalent per liter (g ae/L). The emulsifiable concentrates also included a safener, cloquintocet mexyl, at 120 grams active ingredient per liter (g ai/L). […]
as §5

Kochia scoparia (kochia) = assay: Greenhouse postemergence herbicidal effect on KCHSC
Source text: as §1, §2, §3, §4, §5

[3] = tested on: Sinapis arvensis (wild mustard); assay: Greenhouse postemergence herbicidal effect on SINAR
Source text: as §1, §2, §3, §4, §5

[4] = tested on: Triticum aestivum (winter wheat); assay: Greenhouse postemergence phytotoxicity on crop TRZAW
Source text: as §1, §2
as §3, with “combinations. […]” for “combinations.”
as §5

[5] = tested on: Viola arvensis (field violet); assay: Greenhouse postemergence herbicidal effect on VIOAR
Source text: as §1, §2
as §3, with “combinations. […]” for “combinations.”
as §5

[6] = tested on: Hordeum vulgare (spring barley); assay: Greenhouse postemergence phytotoxicity on crop HORVS
Source text: as §1, §2, §3, §4, §5

[7] = tested on: Echinochloa crus-galli (barnyard grass); assay: Greenhouse postemergence herbicidal effect on ECHCG
Source text: as §1, §2, §6, §5

[8] = tested on: Matricaria chamomilla (wild chamomile); assay: Greenhouse postemergence herbicidal effect on MATCH
Source text: as §1, §2, §3, §4, §5

[9] = tested on: Polygonum convolvulus (wild buckwheat); assay: Greenhouse postemergence herbicidal effect on POLCO
Source text: as §1, §2, §3, §4, §5

[10] = tested on: Viola tricolor (wild pansy); assay: Greenhouse postemergence herbicidal effect on VIOTR
Source text: as §1, §2, §3, §4, §5

[11] = tested on: Lamium purpureum (purple deadnettle); assay: Greenhouse postemergence herbicidal effect on LAMPU
Source text: as §1, §2
as §3, with “combinations. […]” for “combinations.”
as §5

[12] = Compound A 7.5, Saflufenacil 0 g/ha
[13] = Compound A 10, Saflufenacil 0 g/ha
[14] = Compound A 7.5, Oxyfluorfen 0 g/ha
[15] = Compound A 10, Oxyfluorfen 0 g/ha
[16] = Compound A 15, Oxyfluorfen 0 g/ha
[17] = Compound A 7.5, Carfentrazone-ethyl 0 g/ha
[18] = Compound A 7.5, Pyraclonil 0 g/ha
[19] = Compound A 7.5, Pyraflufen-ethyl 0 g/ha
[20] = Compound A 10, Carfentrazone-ethyl 0 g/ha
[21] = Compound A 10, Pyraclonil 0 g/ha
[22] = Compound A 10, Pyraflufen-ethyl 0 g/ha

With N#CCOC(=O)c1nc(-c2ccc3cc[nH]c3c2F)c(F)c(N)c1Cl [Compound A, cyanomethyl 4-amino-3-chloro-5-fluoro-6-(7-fluoro-1H-indol-6-yl)pyridine-2-carboxylate] the “% visual injury, Obs” value ([1]; Compound A 7.5, Bifenox 0 g/ha) was 13%, the “% visual injury, Obs” value [1, 12] was 20% and the “% visual injury, Obs” value ([1]; Compound A 10, Bifenox 0 g/ha) was 8%. For the same compound, the “% visual injury, Obs” value [1, 13] was 13%, the “% visual injury, Obs” value [2, 14] was 20% and the “% visual injury, Obs” value [2, 15] was 20%. The “% visual injury, Obs” value [2, 16] was 63%, the “% visual injury, Obs” value (Zea mays (maize); [12]) was 0% and the “% visual injury, Obs” value (Zea mays (maize); [13]) was 0%. The “% visual injury, Obs” value (Kochia scoparia (kochia); Compound A 7.5, Bifenox 0 g/ha) was 63%, the “% visual injury, Obs” value (Kochia scoparia (kochia); [17]) was 50% and the “% visual injury, Obs” value (Kochia scoparia (kochia); [14]) was 63%. The “% visual injury, Obs” value (Kochia scoparia (kochia); [18]) was 50%, the “% visual injury, Obs” value (Kochia scoparia (kochia); [19]) was 70% and the “% visual injury, Obs” value (Kochia scoparia (kochia); Compound A 10, Bifenox 0 g/ha) was 70%. For the same compound, the “% visual injury, Obs” value (Kochia scoparia (kochia); [20]) was 58%, the “% visual injury, Obs” value (Kochia scoparia (kochia); [15]) was 65% and the “% visual injury, Obs” value (Kochia scoparia (kochia); [21]) was 58%. For the same compound, the “% visual injury, Obs” value (Kochia scoparia (kochia); [22]) was 70%, the “% visual injury, Obs” value (Kochia scoparia (kochia); [16]) was 63% and the “% visual injury, Obs” value [3, 14] was 88%. The “% visual injury, Obs” value [3, 18] was 88%, the “% visual injury, Obs” value [3, 19] was 83% and the “% visual injury, Obs” value [3, 15] was 91%. The “% visual injury, Obs” value [3, 21] was 92%, the “% visual injury, Obs” value [3, 22] was 88% and the “% visual injury, Obs” value [3, 16] was 91%. The “% visual injury, Obs” value [4, 14] was 0%, the “% visual injury, Obs” value [4, 15] was 0% and the “% visual injury, Obs” value [4, 16] was 0%. For the same compound, the “% visual injury, Obs” value [5, 14] was 10%, the “% visual injury, Obs” value [5, 15] was 13% and the “% visual injury, Obs” value [5, 16] was 10%. The “% visual injury, Obs” value [6, 17] was 8%, the “% visual injury, Obs” value [6, 14] was 0% and the “% visual injury, Obs” value [6, 18] was 8%. The “% visual injury, Obs” value [6, 19] was 0%, the “% visual injury, Obs” value [6, 20] was 0% and the “% visual injury, Obs” value [6, 15] was 0%. For the same compound, the “% visual injury, Obs” value [6, 21] was 0%, the “% visual injury, Obs” value [6, 22] was 0% and the “% visual injury, Obs” value [6, 16] was 0%. For the same compound, the “% visual injury, Obs” value ([7]; Compound A 7.5, Bifenox 0 g/ha) was 80%, the “% visual injury, Obs” value ([7]; Compound A 10, Bifenox 0 g/ha) was 88% and the “% visual injury, Obs” value [8, 14] was 23%. The “% visual injury, Obs” value [8, 19] was 10%, the “% visual injury, Obs” value [8, 15] was 35% and the “% visual injury, Obs” value [8, 22] was 20%. For the same compound, the “% visual injury, Obs” value [8, 16] was 45%, the “% visual injury, Obs” value [9, 17] was 70% and the “% visual injury, Obs” value [9, 14] was 65%. For the same compound, the “% visual injury, Obs” value [9, 18] was 70%, the “% visual injury, Obs” value [9, 19] was 30% and the “% visual injury, Obs” value [9, 20] was 78%. The “% visual injury, Obs” value [9, 15] was 78%, the “% visual injury, Obs” value [9, 21] was 78% and the “% visual injury, Obs” value [9, 22] was 43%. For the same compound, the “% visual injury, Obs” value [9, 16] was 85%, the “% visual injury, Obs” value ([10]; Compound A 7.5, Bifenox 0 g/ha) was 45% and the “% visual injury, Obs” value [10, 14] was 13%. For the same compound, the “% visual injury, Obs” value ([10]; Compound A 10, Bifenox 0 g/ha) was 15%, the “% visual injury, Obs” value [10, 15] was 15% and the “% visual injury, Obs” value [10, 16] was 15%. For the same compound, the “% visual injury, Obs” value [11, 14] was 68%, the “% visual injury, Obs” value [11, 15] was 73% and the “% visual injury, Obs” value [11, 16] was 73%.

Reference: US12465050B2, “Compositions comprising a pyridine carboxylate herbicide and protoporphyrinogen oxidase (protox) inhibitor herbicides” (priority 2018, dated 2025)
